According to patent US8017611B2, “Pyridine and pyrazine derivatives -083” (AstraZeneca AB, priority 2007, dated 2011):
Like-named read-outs stand apart in the source and are kept apart here. Values belong to the compound of their own block, whether it stands above or below them.

Key:
[1] = target: T1, Axl expressed on NCI H1299 lung large cell carcinoma cells (Homo sapiens, UniProt P30530); test: Cellular phospho-Axl ELISA assay, Test (b)
T1 sequence (P30530 26-894): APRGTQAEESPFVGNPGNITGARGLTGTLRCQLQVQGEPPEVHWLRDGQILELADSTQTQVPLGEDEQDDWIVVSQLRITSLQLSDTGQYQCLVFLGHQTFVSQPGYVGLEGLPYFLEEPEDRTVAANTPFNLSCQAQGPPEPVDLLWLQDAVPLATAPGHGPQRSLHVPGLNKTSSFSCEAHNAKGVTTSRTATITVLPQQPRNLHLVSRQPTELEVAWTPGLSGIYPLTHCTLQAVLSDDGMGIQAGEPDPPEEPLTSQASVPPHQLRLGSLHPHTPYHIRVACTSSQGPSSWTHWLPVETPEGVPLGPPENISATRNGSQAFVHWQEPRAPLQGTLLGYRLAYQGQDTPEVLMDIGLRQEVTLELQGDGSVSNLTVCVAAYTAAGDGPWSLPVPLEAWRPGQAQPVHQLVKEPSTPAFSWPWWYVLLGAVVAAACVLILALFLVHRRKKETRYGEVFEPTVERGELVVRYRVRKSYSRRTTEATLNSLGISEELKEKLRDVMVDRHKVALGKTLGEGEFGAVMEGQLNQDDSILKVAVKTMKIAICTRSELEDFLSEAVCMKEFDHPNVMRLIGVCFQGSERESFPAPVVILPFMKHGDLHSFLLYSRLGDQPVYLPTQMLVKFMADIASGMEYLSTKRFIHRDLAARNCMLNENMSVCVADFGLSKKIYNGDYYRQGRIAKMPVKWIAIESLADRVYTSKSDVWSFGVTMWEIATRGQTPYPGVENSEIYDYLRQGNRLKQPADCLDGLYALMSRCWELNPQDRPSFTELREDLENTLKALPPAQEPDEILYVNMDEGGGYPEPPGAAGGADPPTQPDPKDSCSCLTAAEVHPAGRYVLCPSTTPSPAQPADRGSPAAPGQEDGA
Description: This assay uses a conventional ELISA method to determine the ability of test compounds to inhibit phosphorylation of tyrosine residues in Axl.
100 μl Aliquots were seeded into each of the wells of a clear 96 well tissue culture plate and the plates were incubated overnight at 37° C. with 5% CO2 to allow the cells to adhere to the wells.
Aliquots of each compound concentration were added to the cells in each well using the Echo 550 (Labcyte Inc., Sunnyvale, Calif., US). Control cells received DMSO only. The cells were incubated for 2 hours at 37° C. with 5% CO2.
The resultant tissue culture plates were incubated on ice for 30 minutes to ensure full lysis.
The wells were washed 3 times with 250 μl per well of PBS containing 0.05% v/v Tween (PBS/T). The wells were treated with 3% w/v BSA in PBS at ambient temperature for 2 hours and subsequently washed 3 times with 250 μl per well of PBS/T.
50 μl Aliquots of the NCI H1299 cell lysates were added to the ELISA plates.
100 μl Aliquots of substrate solution were added to each of the wells and fluorescence was read on a Tecan Ultra plate reader (Tecan UK Ltd., Reading, Berkshire, UK).

[2] = target: T2, recombinant Axl tyrosine kinase (Homo sapiens, UniProt P30530); test: In vitro Axl kinase assay (AlphaScreen), Test (a); format: biochemical; details: for IC50: Test (a), read-out: IC50 versus Axl tyrosine kinase; for % Axl tyrosine kinase inhibition at 1 μM concentration / inhibition at 1 µM: test compound at 1 μM, first value quoted; for inhibition at 1 µM: read-out: % Axl tyrosine kinase inhibition at 1 μM concentration; for inhibition at 30 µM: test compound at 30 μM, read-out: % of Axl tyrosine kinase activity inhibited at a concentration of 30 μM
T2 construct: encompassing amino acids 473 to 894 of Axl; GST (N); made in house; host or cells: SF126 insect cells
T2 sequence (P30530 473-894): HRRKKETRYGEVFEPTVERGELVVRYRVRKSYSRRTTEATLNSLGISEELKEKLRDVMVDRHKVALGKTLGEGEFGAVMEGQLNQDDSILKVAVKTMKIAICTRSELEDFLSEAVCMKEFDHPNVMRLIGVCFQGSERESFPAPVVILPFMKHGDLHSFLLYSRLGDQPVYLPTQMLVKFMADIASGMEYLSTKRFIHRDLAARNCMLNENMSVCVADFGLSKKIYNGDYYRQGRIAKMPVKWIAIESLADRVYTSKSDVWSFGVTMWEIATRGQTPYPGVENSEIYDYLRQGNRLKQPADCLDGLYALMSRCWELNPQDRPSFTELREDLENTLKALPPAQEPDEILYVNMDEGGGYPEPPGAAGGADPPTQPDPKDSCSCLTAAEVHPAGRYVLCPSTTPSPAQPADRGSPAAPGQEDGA

[3] = read-out: IC50 versus cellular phospho-Axl, Test (b), footnotes of Table A
[4] = read-out: IC50 versus cellular phospho-Axl, Test (b), NCI H1299 cells stimulated with GAS6

IC50 [1, 3]: ~234 nM
SMILES: CN1CCC(n2cc(-c3cnc(N)c(-c4nc5ncc(F)cc5o4)c3)cn2)CC1 [Example 41.7]

IC50 [2]: ~0.8 nM
% Axl tyrosine kinase inhibition at 1 μM concentration [2]: 100.0%
IC50 [1, 4]: ~7 nM
SMILES: CN1CCC(n2cc(-c3cnc(N)c(-c4nc5ccccc5o4)c3)c(CO)n2)CC1 [Example 41.19]

IC50 [2]: ~0.4 nM
inhibition at 1 µM [2]: 100%
IC50 [1]: ~16 nM
SMILES: Cc1nn(C2CCNCC2)cc1-c1cnc(N)c(-c2nc3ccccc3o2)c1 [Example 22, 3-(1,3-benzoxazol-2-yl)-5-[3-methyl-1-(4-piperidyl)pyrazol-4-yl]pyridin-2-amine]

IC50 [2]: ~0.3 nM
% Axl tyrosine kinase inhibition at 1 μM concentration [2]: 100.0%
IC50 [1, 4]: ~3 nM
SMILES: COCc1nn(C2CCN(C)CC2)cc1-c1cnc(N)c(-c2nc3ccccc3o2)c1 [Example 41.26]

% Axl tyrosine kinase inhibition at 1 μM concentration [2]: ^#99.8%
IC50 [1, 3]: ~70 nM
SMILES: Nc1ncc(-c2ccc(C3CCNCC3)cc2)cc1-c1nc2ccccc2o1 [Example 2.18]

% Axl tyrosine kinase inhibition at 1 μM concentration [2]: 100.0%
SMILES: CCOc1nn(C2CCN(C)CC2)cc1-c1cnc(N)c(-c2nc3ccccc3o2)c1 [Example 41.13]

% Axl tyrosine kinase inhibition at 1 μM concentration [2]: 99.3%
SMILES: COc1cc(-c2cnc(N)c(-c3nc4ncccc4o3)c2)ccc1OCCCN1CCN(C)CC1 [Example 43C.14]

inhibition at 30 µM [2]: 99.5%
SMILES: Nc1ncc(-c2cccc(S(=O)(=O)N3CCOCC3)c2)cc1-c1nc2ccccc2o1 [Example 47, 3-(1,3-Benzoxazol-2-yl)-5-(3-morpholinosulphonylphenyl)pyridin-2-amine]

% Axl tyrosine kinase inhibition at 1 μM concentration [2]: 92.1%
SMILES: CS(=O)(=O)c1cccc(-c2cnc(N)c(-c3nc4ccccc4o3)n2)c1 [Example 20.9]

inhibition at 1 µM [2]: 100%
SMILES: Cc1nn(C2CCNCC2)cc1-c1cnc(N)c(-c2nc3c(F)cccc3o2)c1 [Example 25A, 3-(4-fluoro-1,3-benzoxazol-2-yl)-5-[3-methyl-1-(4-piperidyl)pyrazol-4-yl]pyridin-2-amine]

inhibition at 1 µM [2]: 100%
SMILES: Cc1cccc2nc(-c3cc(-c4cnn(C5CCN(C)CC5)c4)cnc3N)oc12 [Example 36, 3-(7-methyl-1,3-benzoxazol-2-yl)-5-[1-(1-methyl-4-piperidyl)pyrazol-4-yl]pyridin-2-amine]

% Axl tyrosine kinase inhibition at 1 μM concentration [2]: 99.3%
SMILES: CC(C)(C)OC(=O)NCc1cccc(-c2cnc(N)c(-c3nc4ccncc4o3)c2)c1 [Example 11A.9]

inhibition at 1 µM [2]: 99.9%
IC50 [1]: ~101 nM
SMILES: Nc1ncc(-c2cnn(C3CCNCC3)c2)cc1-c1nc2ccccc2s1 [Example 14, 3-(1,3-Benzothiazol-2-yl)-5-[1-(4-piperidyl)pyrazol-4-yl]pyridin-2-amine]

inhibition at 1 µM [2]: 100%
SMILES: COCc1nn(C2CCN(CCO)CC2)cc1-c1cnc(N)c(-c2nc3ccccc3o2)c1 [Example 72, 2-[4-[4-[6-amino-5-(1,3-benzoxazol-2-yl)-3-pyridyl]-3-(methoxymethyl)pyrazol-1-yl]-1-piperidyl]ethanol]

inhibition at 1 µM [2]: 9.7%
inhibition at 30 µM [2]: 76.4%
SMILES: Cc1nn(C2CCN(C(=O)OC(C)(C)C)CC2)cc1-c1cnc(N)c(-c2nc3ccccc3o2)c1 [Example 21, Tert-butyl 4-[4-[6-amino-5-(1,3-benzoxazol-2-yl)-3-pyridyl]-3-methyl-pyrazol-1-yl]piperidine-1-carboxylate]

% Axl tyrosine kinase inhibition at 1 μM concentration [2]: 99.7%
SMILES: NCc1ccc(-c2cnc(N)c(-c3nc4ccccc4o3)c2)cc1 [Example 2.13]

% Axl tyrosine kinase inhibition at 1 μM concentration [2]: 63.9%
SMILES: Nc1ncc(-c2cccc(C(=O)NCCN3CCOCC3)c2)cc1-c1nc2ncccc2o1 [Example 10A.2]

% Axl tyrosine kinase inhibition at 1 μM concentration [2]: 97.3%
SMILES: Nc1ncc(-c2ccc(C(=O)N3CCN(Cc4ccncc4)CC3)cc2)cc1-c1nc2cccnc2o1 [Example 45A.62]

% Axl tyrosine kinase inhibition at 1 μM concentration [2]: 82.5%
SMILES: Nc1ncc(-c2cccc(C(=O)NCCN3CCCC3)c2)cc1-c1nc2ncccc2o1 [Example 10A.9]

% Axl tyrosine kinase inhibition at 1 μM concentration [2]: 85.8%
SMILES: Nc1ncc(-c2cccc(N3CCCCC3)c2)cc1-c1nc2cnccc2o1 [Example 8A.21]

% Axl tyrosine kinase inhibition at 1 μM concentration [2]: 60.3%
SMILES: Nc1ncc(-c2ccnc3ccccc23)cc1-c1nc2ccccc2o1 [Example 2.25]

% Axl tyrosine kinase inhibition at 1 μM concentration [2]: 99.5%
SMILES: Nc1ncc(-c2ccc(C(=O)N3CCCC(N)CC3)cc2)cc1-c1nc2cccnc2o1 (stereo not drawn) [Example 45A.95]

% Axl tyrosine kinase inhibition at 1 μM concentration [2]: 100.0%
SMILES: CNC(=O)c1cccc2nc(-c3cc(-c4cnn(C5CCN(C)CC5)c4)cnc3N)oc12 [Example 41.36]

inhibition at 1 µM [2]: 100%
SMILES: CNC(=O)CN1CCC(n2cc(-c3cnc(N)c(-c4nc5ccccc5o4)c3)c(COC)n2)CC1 [Example 68, 2-[4-[4-[6-amino-5-(1,3-benzoxazol-2-yl)-3-pyridyl]-3-(methoxymethyl)pyrazol-1-yl]-1-piperidyl]-N-methyl-acetamide]
